Data published in PubChem BioAssay AID256 (DTP/NCI, 2004).
Where “and” joins values, the source holds several entries; their conditions need not be identical. Identical values can stand only once. Inconclusive results and toxic doses are left out. How the source made its calls: active means survival T/C of 150% or more; inactive means T/C below 125% in these data.

Test system: CD2F1 mice, L1210 leukemia ip, survival T/C
Test: NCI In Vivo Anticancer Drug Screen. Data for tumor model L1210 Leukemia (intraperitoneal) in CD2F1 (CDF1) mice
Conditions: higher = longer survival
Method in brief: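 Ratio T/C, where T is the treated-group value and C the vehicle-dosed control value, from mice implanted with a transplantable tumor.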

[1] = endpoint: mean survival time, dose: 100.0 mg/kg/injection, schedule: Q04DX003 (ip), vehicle: saline with Tween-80
[2] = endpoint: mean survival time, dose: 400.0 mg/kg/injection, schedule: Q04DX003 (ip), vehicle: saline with Tween-80
[3] = endpoint: mean survival time, dose: 12.5 mg/kg/injection, schedule: Q01DX009 (ip), vehicle: saline with Tween-80
[4] = endpoint: mean survival time, dose: 50.0 mg/kg/injection, schedule: Q01DX009 (ip), vehicle: saline with Tween-80
[5] = endpoint: mean survival time, dose: 100.0 mg/kg/injection, schedule: Q01DX001 (ip), vehicle: saline with Tween-80
[6] = endpoint: mean survival time, dose: 200.0 mg/kg/injection, schedule: Q01DX001 (ip), vehicle: saline with Tween-80
[7] = endpoint: mean survival time, dose: 200.0 mg/kg/injection, schedule: Q04DX003 (ip), vehicle: saline with Tween-80
[8] = endpoint: mean survival time, dose: 100.0 mg/kg/injection, schedule: Q01DX009 (ip), vehicle: saline with Tween-80
[9] = endpoint: mean survival time, dose: 200.0 mg/kg/injection, schedule: Q01DX009 (ip), vehicle: saline with Tween-80
[10] = endpoint: mean survival time, dose: 400.0 mg/kg/injection, schedule: Q01DX009 (ip), vehicle: saline with Tween-80
[11] = endpoint: mean survival time, dose: 100.0 mg/kg/injection, schedule: Q04DX002 (ip), vehicle: saline with Tween-80
[12] = endpoint: mean survival time, dose: 200.0 mg/kg/injection, schedule: Q04DX002 (ip), vehicle: saline with Tween-80
[13] = endpoint: mean survival time, dose: 400.0 mg/kg/injection, schedule: Q04DX002 (ip), vehicle: saline with Tween-80
[14] = endpoint: mean survival time, dose: 25.0 mg/kg/injection, schedule: Q04DX002 (ip), vehicle: saline with Tween-80
[15] = endpoint: mean survival time, dose: 50.0 mg/kg/injection, schedule: Q04DX002 (ip), vehicle: saline with Tween-80

Measured: T/C

Cc1cc(N(CCOS(C)(=O)=O)CCOS(C)(=O)=O)ccc1N=Nc1ccccc1
inactive: endpoint: mean survival time, dose: 3.12 mg/kg/injection, schedule: Q01DX009 (ip), vehicle: Klucel (hydroxypropylcellulose) (HPC) 106 % of control | endpoint: mean survival time, dose: 6.25 mg/kg/injection, schedule: Q01DX009 (ip), vehicle: Klucel (hydroxypropylcellulose) (HPC) 113 % of control | endpoint: mean survival time, dose: 12.5 mg/kg/injection, schedule: Q01DX009 (ip), vehicle: Klucel (hydroxypropylcellulose) (HPC) 114 % of control and 124 % of control | endpoint: mean survival time, dose: 25.0 mg/kg/injection, schedule: Q01DX009 (ip), vehicle: Klucel (hydroxypropylcellulose) (HPC) 101 % of control | endpoint: mean survival time, dose: 50.0 mg/kg/injection, schedule: Q01DX009 (ip), vehicle: Klucel (hydroxypropylcellulose) (HPC) 95 % of control

O=C(Nc1ccc(NC(=O)c2ccccc2)c2ccccc12)c1ccccc1
inactive: [1] 92 % of control | [2] 92 % of control

O=C(Nc1ccc(Cl)c(Cl)c1)C(Cl)Cl
inactive: [3] 95 % of control | endpoint: mean survival time, dose: 25.0 mg/kg/injection, schedule: Q01DX009 (ip), vehicle: saline with Tween-80 101 % of control | [4] 107 % of control

CN(C)c1ccc(N=Nc2cccnc2)cc1
inactive: [5] 97 % of control | [6] 97 % of control

O=C1OC2C(I)C3CC1C2C3 (stereo not drawn)
inactive: [1] 96 % of control | [7] 96 % of control

Cc1cccc(C)c1NC(=O)c1ccccc1C(=O)O
inactive: [8] 92 % of control | [1] 98 % of control | [9] 92 % of control | [7] 98 % of control | [10] 97 % of control | [2] 96 % of control

CCCCNC(C)(C)C(SS)c1ccc(C(F)(F)F)cc1 (stereo not drawn)
inactive: endpoint: mean survival time, dose: 100.0 mg/kg/injection, schedule: Q04DX003 (ip), vehicle: other 94 % of control | endpoint: mean survival time, dose: 400.0 mg/kg/injection, schedule: Q04DX003 (ip), vehicle: other 86 % of control

O=C(NC(=S)Nc1ccccc1Cl)c1ccc(Cl)cc1
inactive: [11] 103 % of control | [12] 88 % of control | [13] 88 % of control

C[N+](C)(C)Cc1ccccc1
inactive: endpoint: mean survival time, dose: 3.13 mg/kg/injection, schedule: Q01DX009 (ip), vehicle: saline with Tween-80 97 % of control | endpoint: mean survival time, dose: 6.25 mg/kg/injection, schedule: Q01DX009 (ip), vehicle: saline with Tween-80 97 % of control | [3] 95 % of control | endpoint: mean survival time, dose: 12.5 mg/kg/injection, schedule: Q04DX003 (ip), vehicle: saline 104 % of control

O=c1ccc(OS(=O)(=O)c2ccccc2)n[nH]1
inactive: [11] 95 % of control | [12] 87 % of control | [13] 104 % of control

OC(CCl)Cc1ccccc1 (stereo not drawn)
inactive: [1] 95 % of control

CC1OC(n2ccc(=O)[nH]c2=O)C(O)C(O)C1=O (stereo not drawn)
inactive: endpoint: median survival time, dose: 26.5 mg/kg/injection, schedule: Q01DX005 (ip), vehicle: Klucel (hydroxypropylcellulose) (HPC) 102 % of control | endpoint: median survival time, dose: 53.0 mg/kg/injection, schedule: Q01DX005 (ip), vehicle: Klucel (hydroxypropylcellulose) (HPC) 100 % of control | endpoint: median survival time, dose: 106.0 mg/kg/injection, schedule: Q01DX005 (ip), vehicle: Klucel (hydroxypropylcellulose) (HPC) 107 % of control | endpoint: median survival time, dose: 212.0 mg/kg/injection, schedule: Q01DX005 (ip), vehicle: Klucel (hydroxypropylcellulose) (HPC) 101 % of control

CC1(C)C2C(Br)C3OC(=O)C(C2C(=O)O)C31 (stereo not drawn)
inactive: [8] 96 % of control | [1] 91 % of control | [9] 96 % of control | [7] 96 % of control | [10] 93 % of control | [2] 91 % of control

COC(=O)c1nccnc1N
inactive: endpoint: mean survival time, dose: 100.0 mg/kg/injection, schedule: Q04DX002 (ip), vehicle: saline 96 % of control | endpoint: mean survival time, dose: 200.0 mg/kg/injection, schedule: Q04DX002 (ip), vehicle: saline 105 % of control | endpoint: mean survival time, dose: 400.0 mg/kg/injection, schedule: Q04DX002 (ip), vehicle: saline 113 % of control

O=C(CC(SCCN1CCOCC1)c1ccc([N+](=O)[O-])cc1)c1ccccc1 (stereo not drawn)
inactive: endpoint: mean survival time, dose: 100.0 mg/kg/injection, schedule: Q01DX001 (ip), vehicle: Klucel (hydroxypropylcellulose) (HPC) 104 % of control | endpoint: mean survival time, dose: 200.0 mg/kg/injection, schedule: Q01DX001 (ip), vehicle: Klucel (hydroxypropylcellulose) (HPC) 96 % of control | endpoint: mean survival time, dose: 400.0 mg/kg/injection, schedule: Q01DX001 (ip), vehicle: Klucel (hydroxypropylcellulose) (HPC) 107 % of control

O=c1[nH]cnc2c1CN(c1ccccc1)C2
inactive: endpoint: mean survival time, dose: 75.0 mg/kg/injection, schedule: Q01DX001 (ip), vehicle: saline 113 % of control | endpoint: mean survival time, dose: 150.0 mg/kg/injection, schedule: Q01DX001 (ip), vehicle: saline 104 % of control

C/C=C(/CCCCC)C(=O)OCC
inactive: [8] 106 % of control | [9] 100 % of control | [10] 101 % of control

CCOC(=O)C(=O)Cc1cc(=O)cc(C)o1
inactive: [8] 95 % of control | [9] 92 % of control | [10] 93 % of control

NC(=O)c1ncc(-c2ccc(Cl)cc2)[nH]c1=O
inactive: endpoint: mean survival time, dose: 100.0 mg/kg/injection, schedule: Q04DX003 (ip), vehicle: saline sonified 94 % of control | endpoint: mean survival time, dose: 200.0 mg/kg/injection, schedule: Q04DX003 (ip), vehicle: saline sonified 93 % of control | endpoint: mean survival time, dose: 400.0 mg/kg/injection, schedule: Q04DX003 (ip), vehicle: saline sonified 96 % of control

CC1=[S+]c2ccccc2C2Nc3ccccc3C12 (stereo not drawn)
inactive: endpoint: mean survival time, dose: 100.0 mg/kg/injection, schedule: Q04DX003 (ip), vehicle: acetone 103 % of control | endpoint: mean survival time, dose: 200.0 mg/kg/injection, schedule: Q04DX003 (ip), vehicle: acetone 105 % of control

CCN(CC)CCNC(=O)C(O)C1CCCCC1 (stereo not drawn)
inactive: endpoint: mean survival time, dose: 75.0 mg/kg/injection, schedule: Q01DX001 (ip), vehicle: other 90 % of control

c1coc(NC2CCCCC2)n1
inactive: [5] 102 % of control | [6] 102 % of control | endpoint: mean survival time, dose: 400.0 mg/kg/injection, schedule: Q01DX001 (ip), vehicle: saline with Tween-80 102 % of control

N.N.N.N.O=C([O-])C([O-])C(O)C(=O)[O-].O=[N+]([O-])[O-].[Co+3] (stereo not drawn)
inactive: [14] 104 % of control | [15] 110 % of control | [11] 110 % of control

COc1cc(Cl)ccc1NC(=O)Nc1ccccc1C
inactive: [14] 90 % of control | [15] 94 % of control | [11] 94 % of control | [12] 90 % of control | [13] 90 % of control

O=S(=O)(Oc1ccc(OS(=O)(=O)c2ccccc2)cc1)c1ccccc1
inactive: [8] 96 % of control | [9] 98 % of control | [10] 107 % of control

NC(=O)C[P+](c1ccccc1)(c1ccccc1)c1ccccc1
inactive: endpoint: mean survival time, dose: 25.0 mg/kg/injection, schedule: Q04DX003 (ip), vehicle: saline with Tween-80 109 % of control | endpoint: mean survival time, dose: 50.0 mg/kg/injection, schedule: Q04DX003 (ip), vehicle: saline with Tween-80 114 % of control | [1] 102 % of control and 105 % of control

COc1cc2ccc(CC(=S)N3CCOCC3)cc2cc1OC
inactive: [8] 98 % of control | [1] 104 % of control | [9] 93 % of control | [7] 95 % of control | [10] 96 % of control

OCC1OC(c2ccccc2)OC(CO)C(O)C1O (stereo not drawn)
inactive: [4] 96 % of control | [8] 98 % of control | [9] 94 % of control
